Data: ChEMBL document CHEMBL5728584, “Bicyclic amide compounds and methods of use thereof” (2021)
pKi: −log10 of the molar value.

Biological target: T1, Receptor-interacting serine/threonine-protein kinase 1 (Homo sapiens, UniProt Q13546)
T1 sequence (Q13546 whole entry): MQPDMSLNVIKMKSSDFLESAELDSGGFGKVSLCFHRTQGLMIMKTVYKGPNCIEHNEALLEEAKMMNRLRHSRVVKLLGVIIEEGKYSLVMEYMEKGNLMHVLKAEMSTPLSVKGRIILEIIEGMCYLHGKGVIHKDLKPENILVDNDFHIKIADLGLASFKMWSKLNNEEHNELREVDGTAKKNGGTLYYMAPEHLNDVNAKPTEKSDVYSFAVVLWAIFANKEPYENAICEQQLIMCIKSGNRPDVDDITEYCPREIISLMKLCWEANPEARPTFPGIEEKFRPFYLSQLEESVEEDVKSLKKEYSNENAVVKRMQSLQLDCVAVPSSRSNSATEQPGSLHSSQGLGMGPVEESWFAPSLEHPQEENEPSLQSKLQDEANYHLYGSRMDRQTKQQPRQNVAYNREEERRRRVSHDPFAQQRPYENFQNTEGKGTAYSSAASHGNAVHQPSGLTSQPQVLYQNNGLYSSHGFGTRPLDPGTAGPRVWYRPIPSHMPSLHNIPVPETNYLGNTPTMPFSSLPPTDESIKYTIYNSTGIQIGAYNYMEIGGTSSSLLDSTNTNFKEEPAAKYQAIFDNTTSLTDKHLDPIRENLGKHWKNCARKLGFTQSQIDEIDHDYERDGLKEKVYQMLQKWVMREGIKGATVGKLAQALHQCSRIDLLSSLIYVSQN
Assay: Biochemical Assay: The ability of the receptor interacting protein kinase (RIPK1) to catalyze the hydrolysis of adenosine-5′-triphosphate (ATP) is monitored using the Transcreener ADP (adenosine-5′-diphosphate) assay (BellBrook Labs). Purified human RIP1 kinase domain (2-375) (50 nM) derived from a baculovirus-infected insect cell expression system is incubated with test compounds for 2 hours in 50 mM Hepes buffer (pH 7.5) containing 30 mM MgCl2, 1 mM dithiothreitol, 50 uM ATP, 0.002% Brij-35, and 0.5% dimethyl sulfoxide (DMSO). Reactions are quenched by the addition of 1× Bell Brooks Stop buffer B (20 mM Hepes (ph7.5), 40 mM ethylenediaminetetraacetic acid and 0.02% Brij-35) containing an additional 12 mM EDTA and 55 ug/mL ADP2 antibody and 4 nM ADP-AlexaFluor® 633 tracer. The tracer bound to the antibody is displaced by the ADP generated during the RIP1K reaction, which causes a decrease in fluorescence polarization that is measured by laser excitation at 633 nm with a FP microplate reader M1000.

## O=C(c1nc2n(n1)CCOC2c1ccccc1)N1CC(F)C1 (racemic)
  pKi: 5.68
